Structures can show the parent of a compound that is named as a salt.
What was measured:
[1] = test system: 5XFAD mice; test: Immunohistochemistry of brain slices of 5XFAD mice (amyloid plaques, PHF-tau, abnormal axons, presynapses); type: in vivo, mouse; conditions: vs vehicle-treated 5XFAD, diosgenin 10 μmol/kg, memantine hydrochloride 200 μmol/kg/day i.p. 20 days
Protocol: One day after the novel object recognition test, the mice were anesthetized and transcardially perfused with cold physiological saline. The brains were carefully removed from the skull, immediately immersed in 10 to 30% sucrose-PBS and stored at -80° C. The brains were cut in 20-μm successive coronal slices every 100 μm in the parietal area (bregma 1.4-2 mm) sections using a cryostat (C[…], Leica, Heidelberg, Germany). The slices were fixed with 4% paraformaldehyde and stained with a polyclonal antibody against Aβ (1-40/42) (1:300) (Chemicon, Temecula, Calif., USA), a monoclonal antibody against pNF-H (1:500) (Covance, Emeryville, Calif., USA), a monoclonal antibody against synaptophysin (1:500) (Sigma-Aldrich), and a monoclonal antibody against PHF-tau (Thermo Scientific, Rockford, Ill., USA) at 4° C. for 20 hours. […] Three successive brain slices of the frontal cortex and five successive slices of the hippocampus were captured from a mouse for quantification. Extracellular amyloid plaques were determined by the size (greater than 50 μm in width), and the area of amyloid plaques was measured using the image analyzing software ImageJ. The area of the pNF-H-positive abnormal bulb-like axons was measured using ImageJ for every amyloid plaque in the fluorescent images (324 μm×430 μm). The areas of the synaptophysin-positive presynaptic boutons in every amyloid plaque were measured in fluorescent images (324 μm×430 μm) using Image J. The areas of PHF-tau in every amyloid plaque and outer amyloid plaques were measured in fluorescent images (324 μm×430 μm) using ImageJ.

[2] = test system: 5XFAD mice; test: Novel object recognition test in 5XFAD mice (Alzheimer's disease model); type: in vivo, mouse
Source text: Transgenic mice (5XFAD) as an animal model of AD were obtained from the Jackson Laboratory (Bar Harbor, Me., USA). The 5XFAD mice overexpress human APP695 cDNA having Swedish mutation (K670N and M671L), Florida mutation (I716V) and London mutation (V717I) and human PS1 cDNA (M146L and L286V) under the transcriptional control of the neuron-specific mouse Thy-1 promoter (Oakley, H. et al., J Neurosci, 26, 10129-10140, 2006). They were maintained by crossing hemizygous transgenic mice with B6/SJL F1 breeders.
To investigate the effect of diosgenin on 5XFAD, hemizygous 5XFAD mice (female, 6 to 8 months old) and non-transgenic littermate wild-type mice (female, 6 to 8 months old) were used. These mice were obtained by crossing hemizygous 5XFAD mice and B6/SJL F1 mice. All mice were housed with free access to food and water and were kept in a controlled environment (22±2° C., 50±5% humidity, 12-h light/dark cycle starting at 7:00 am).
Diosgenin was dissolved in dimethyl sulfoxide (DMSO) at 10 times the final concentration to give a stock solution. The stock solution was diluted in physiological saline to the final concentration immediately before treatment. The diosgenin solution was intraperitoneally administered to 5XFAD mice once a day (10 μmol/kg=4.14 mg/kg) for 20 days. On the last day of administration (Day 20), each mouse was housed in a separate open-field box made of polyvinyl chloride (33 cm×[…]; height: 26.5 cm) and habituated to the environment for 10 min. […]
For each mouse of Example 1, Comparative Examples 1 and 2, and Reference Example 1, the path during the 10-minute habituation was tracked using a digital camera system. The distance each mouse traveled during the 10 minutes was analyzed as locomotion activity with EthoVision 3.0 (Noldus, Wageningen, The Netherlands). […] In the present invention, the ratio (%) of the exploration time for the novel object to the total exploration time was calculated as an exploration preferential index. […]

[3] = test system: normal mice; test: Novel object recognition test in normal mice; type: in vivo, mouse; conditions: normal ddY mice, dioscin 30 μmol/kg/day orally 4 days
Protocol: Diosgenin (Wako Pure Chemical Industries, Ltd., Osaka, Japan) was dissolved in ethanol at 10 times the final concentration to give a stock solution, and the stock solution was diluted in a 5% aqueous solution of glucose to the final concentration. The diosgenin solution was intraperitoneally administered to normal mice (ddY mice, male, 6 weeks old) once a day (10 μmol/kg/day) for 5 or 6 days. One hour after the last administration, each mouse was housed in a separate open-field box made of polyvinyl chloride (33 cm×28 cm; height: 26.5 cm), habituated to the environment for 10 minutes, and used in the test.
Using the mice of Example 8 and Comparative Example 11, a novel object recognition test was performed to evaluate the object recognition memory. Testing was carried out in a dimly illuminated room (100 lux). The test was performed as described in Joyashiki, E. et sl., Int J Neurosci, 121, 181-190, 2011 and Tohda, C. et al., Int J Neurosci, 121, 641-648, 2011, written by the inventors and others, except that the time interval between a training session and a test session was 48 hours. As a locomotion index, the path of each mouse was tracked using a digital camera system. The distance each mouse traveled during the 10 minutes was analyzed as locomotion activity with EthoVision 3.0 (Noldus, Wageningen, The Netherlands).
The diosgenin solution was intraperitoneally administered to normal mice (C57BL/6, male, 8 weeks old) (100 μmol/kg/day) for 14 days. On the day after the 14th administration, the mice were used in the test.
Using the mice of Example 9 and Comparative Example 12, the novel object recognition test was performed. The test was performed under the conditions as described above.
Dioscin in an amount of 30 μmol/kg/day was orally administered to normal mice (ddY mice, male, 6 weeks old) for 4 days. Dioscin (Chromadex, Irvine, Calif., USA) was dissolved in ethanol at 10 times the final concentration to give a stock solution, and the stock solution was diluted in a 5% aqueous solution of glucose to the final concentration. […]

[4] = Body weight during dioscin administration; type: in vivo, mouse
Protocol: Dioscin in an amount of 30 μmol/kg/day was orally administered to normal mice (ddY mice, male, 6 weeks old) for 4 days. Dioscin (Chromadex, Irvine, Calif., USA) was dissolved in ethanol at 10 times the final concentration to give a stock solution, and the stock solution was diluted in a 5% aqueous solution of glucose to the final concentration. One hour after the last administration, the mice were used in the test.
Dioscin (30 μmol/kg/day) was orally administered to 5XFAD mice (male, 20 weeks old) for 6 days. One hour after the last administration, the training session was initiated.

[5] = test system: rat cortical neurons (SD E18); test: Measurement of axon density in cortical neurons with or without 1,25D3-MARRS knockdown; conditions: 1 μM, 4 days, vs vehicle; for density of pNF-H-positive axons per MAP2-positive neuron, control groups: control (no 1,25D3-MARRS knockdown) cortical neurons; for density of pNF-H-positive axons per MAP2-positive neuron, 1,25D3-MARRS knockdown groups: neurons transfected with siRNA for 1,25D3-MARRS (400 nM)
Source text: siRNAs were transfected into rat cortical neurons (SD E18) according to the manufacturer's protocol for nucleofection (Lonza, Bazel, Switzerland). […] Two days after the transfection, the cells were fixed and double-immunostained with a monoclonal antibody against a neuron marker MAP2a/2b (1:500, NeoMarker, Fremont, Calif., USA) and Ab099 clone, a specific antibody for 1,25D3-MARRS (1:500, provided by Dr. Nemere).
Twelve to fourteen images were captured. The lengths of the pNF-H-positive axons were measured using an image analyzer Neurocyte (Kurabo), which automatically traces and measures neurite length without measuring the cell bodies. The sum of the axon lengths was divided by the number of MAP2-positive neurons.
1,25D3-MARRS was knocked down using siRNA transfection. […] Two days after the siRNA transfection, denosomin (1 μM) or a vehicle solution was applied to the cells. Further, after 4-day incubation, the cells were double-immunostained for pNF-H and MAP2 to measure the axonal length per neuron.

With `CC12CC3CC(C)(C1)CC(N)(C3)C2` [memantine, Memantine hydrochloride, reference compound] the “area of abnormal axons (swollen axon area) per amyloid plaque in the cerebral cortex” value [1] was “not significantly reduced”, the “area of abnormal axons (swollen axon area) per amyloid plaque in the hippocampus” value [1] was “inversely significantly increased” and the “total area of PHF-tau in the cerebral cortex” value [1] was “not significantly different”. For the same compound, the “total area of PHF-tau in the hippocampus” value [1] was “inversely significantly increased”, the “total area of amyloid plaques in the hippocampus” value [1] was “significantly reduced in the hippocampus” and the “novel object preferential index (exploration preferential index), test session” value ([2]; i.p. once a day for 20 days, diosgenin 10 μmol/kg, memantine hydrochloride 200 μmol/kg/day, 30 min training-test interval) was 50%.

With `C[C@@H]1CC[C@@]2(OC1)O[C@H]1C[C@H]3[C@@H]4CC=C5C[C@@H](O[C@@H]6O[C@H](CO)[C@@H](O[C@@H]7O[C@@H](C)[C@H](O)[C@@H](O)[C@H]7O)[C@H](O)[C@H]6O[C@@H]6O[C@@H](C)[C@H](O)[C@@H](O)[C@H]6O)CC[C@]5(C)[C@H]4CC[C@]3(C)[C@H]1[C@@H]2C` [dioscin] the “behavior index of exploratory behavior for the novel object” value ([2]; dioscin 30 μmol/kg/day orally 6 days, one hour training-test interval) was “higher than 50%”, the “behavior index of exploratory behavior for the novel object” value [3] was “higher than 50%” and the body weight ([4]; 5XFAD mice, dioscin 30 μmol/kg/day orally 6 days) was “None of the groups showed marked change”. For the same compound, the “transition of body weight” value ([4]; normal ddY mice, dioscin 30 μmol/kg/day orally 4 days) was “no significant difference”.

With `C[C@@H]([C@H]1CC[C@H]2[C@@H]3CC=C4C[C@@H](O)CC[C@]4(C)[C@H]3CC[C@]12C)[C@H]1CC=C(CO)C(=O)O1` [denosomin] the “density of pNF-H-positive axons per MAP2-positive neuron, control groups” value [5] was “significantly increased” and the “density of pNF-H-positive axons per MAP2-positive neuron, 1,25D3-MARRS knockdown groups” value [5] was “almost completely inhibited”.

With `C=C1/C(=C\C=C2/CCC[C@]3(C)[C@@H]([C@H](C)CCCC(C)(C)O)CC[C@@H]23)C[C@@H](O)C[C@@H]1O` [DHVD3, 1α,25-dihydroxy vitamin D3, reference compound] the “density of pNF-H-positive axons per MAP2-positive neuron, control groups” value [5] was “significantly increased” and the “density of pNF-H-positive axons per MAP2-positive neuron, 1,25D3-MARRS knockdown groups” value [5] was “did not show any difference”.
